How the values were obtained:
[1] = system: T cells; experiment: Regulatory markers on T cells co-cultured with BiP-treated dendritic cells; assay type: cell-based, human
Method: FIG. 11: Co-culture of T cells with BiP-treated dendritic cells (DC) upregulates regulatory markers. […] Mean ±standard deviation of three experiments is shown.
Intracellular staining was carried out with fixed cells incubated with 1% paraformaldehyde in IF buffer for 5 minutes at room temperature. The cells were washed twice with IF buffer containing 0.3% saponin for permeabilization. 0.3% saponin was then present in all IF buffer used thereafter. CTLA-4/CD152 (BD), FoxP3 (eBioscience) and indolamine 2,3-dioxygenase (Santa Cruz) and cytokines required intracellular staining. Antibodies were added at the pre-determined optimal concentration for 20 mins and then the cells were washed twice with IF buffer and analysed. Isotype controls, IgG1 and IgG2a (Becton Dickinson, Oxford, UK) were used in parallel. Cells were analysed on a FACScan cytometer using Cellquest software (Becton Dickinson, Oxford, UK).
T cells were purified from peripheral blood mononuclear cells and set up in culture with either allogeneic or autologous dendritic cells, which had been washed and irradiated, at a ratio of 10 T cells:1 DC. The cells were co-cultured in a 24 well plate in 1 ml/well, in RPMI 1640 supplemented with 10% foetal calf serum, for 4 days then the T cells were removed and washed before being investigated for the presence of T regulatory cells (see below)
Immunofluorescent staining was performed, as described previously (39), on DC harvested at day 7, T cells after 4 days co-culture with DC. Saturating concentrations of fluorescein isothiocyanate (FITC)-, phycoerythrin (PE) or peridium chlorophyll (Per-CP)-conjugated mAb were added recognizing CD14, CD86, CD80, HLA-DR, CD11c, CD1a, CD83, CD85j, IL-10 receptor; purity of the negatively selected MO and T cells was checked using CD3, CD4, CD14, CD20 and CD57 (all from Becton Dickinson/PharMingen (BD), Oxford, UK). Intracellular staining was carried out following fixation of cells with 1% paraformaldehyde for 5 minutes. Cells were then washed with immunofluorescence buffer (PBS/0.1% BSA/0.05% azide) containing 0.3% saponin. 0.3% saponin was then present in all solutions thereafter. CD152/CTLA-4 (BD, Oxford UK) and IDO (Santa Cruz, Autogen Bioclear, UK) were intracellular stains. Isotype controls, IgG1 and IgG2a (BD, Oxford, UK) were used in parallel. Cells were analysed on a FACScan/FACScalibur cytometers using Cellquest software (BD, Oxford, UK).

[2] = system: IL-8 gene; experiment: Affymetrix gene array of BiP treated monocytes; assay type: cell-based, human; details: monocytes cultured with BiP for 24 h compared with unstimulated monocytes
Excerpt: This was confirmed in two Affymetrix™ gene arrays and also in an inflammatory cytokine gene array.
The transcription profiles of the BiP stimulated and unstimulated MO were generated using the Human GeneChip U95Av2 which simultaneously measures 12500 gene transcripts. To identify genes differentially expressed in the presence of BiP, comparisons were made between the transcription profiles obtained from the MO using the analysis software dChip version 1.2 (32).

[3] = system: human peripheral blood mononuclear cells; experiment: Human PBMC injected intraperitoneally into SCID mice; assay type: in vivo, human cells in SCID mice
Method: Human peripheral blood mononuclear cells (50.106/mouse), either with concomitant BiP (100 μg/mouse) or with PBS/vehicle, were injected into the peritoneal cavity of SCID mice. After 11d the cells were flushed from the peritoneal cavity and investigated by flow cytometry. (A) Intracellular expression of IL-4 was measured 3 h post ex vivo stimulation with PMA (10 ng/ml) and ionomycin (1 μg/ml) in the presence of monensin. (B) surface expression of HLA-DR CD4+ cells. The mean and standard deviation of 3 experiments are shown
The biomarkers were investigated in two situations: 1) when 50.10^6 human peripheral blood mononuclear cells were injected intraperitoneally, with or without BiP (100 μg), into a mouse and the cells were harvested from the peritoneum 11 days later; or (2) BiP (200 μg) was injected intravenously into a mouse and the spleens and lymph nodes removed 11 days later.
In each of three experiments, two/three mice were injected either with BiP treated human peripheral blood mononuclear cells (hPBMC) (50.10^6/mouse) and or untreated hPBMC. The mice were sacrificed 11 days later, the peritoneal cavity washed out and the cells collected for immunofluorescence and flow cytometric analysis. The cells were particularly stained for TH2 markers and intracellular anti-inflammatory cytokines.
SCID mice were given an intraperitoneal injection of human PBMC (50.106/mouse) in the presence or absence of BiP (100 μg/mouse) and sacrificed 11d later when the peritoneum was washed out with PBS and the remaining cells collected for analysis. Cells were examined for the intracellular presence of IL-4 or IFNγ and for cell surface molecules such as HLA-DR and CD86.

[4] = system: IL-10; experiment: IL-10 production by dendritic cell cultures (ELISA); assay type: cell-based, human; details: for IL-10 production: n=8
Method: (§1) Supernatant samples were collected on day 1, 3 and 7 for iDC and from the final cultures of the T cells taken from the iDC/mDC-T cell allogeneic test system and set up with autologous cells to determine if there was any regulatory activity. The samples were aliquoted and frozen at −70° C. until required. Production IL-10 was quantified by ELISA using paired antibodies and recombinant standards (PharMingen, Oxford, UK) according to the recommendations of the manufacturer. In addition some were analysed by cytometric bead assay (BD, Oxford, UK) according to the manufacturers instructions.
To neutralize IL-10 within the cultures anti-IL-10 antibody (ATCC, Rockville, USA) was added at day 0 (5 μg/ml) to GM-CSF and IL-4 treated cultures in the presence and absence of BiP (20 μg/ml). Two specific cell-permeable inhibitors of the MAPK intracellular signalling pathways were used. SB203580 (SB)(10 μM)((Calbiochem, Darmstadt, Germany) inhibits p38 MAPK, and PD98059 (PD) (10 μM)(Calbiochem), an inhibitor of MAPK extracellular signal regulated kinase (ERK), were tested. MO were pre-treated with the inhibitors for 2 h before adding GM-CSF and IL-4 in the presence or absence of BiP.
as §1, with “of the pro-inflammatory cytokine, TNFα, and the anti-inflammatory cytokine, IL-10,” for “IL-10”

[5] = Example 4, hPBMC recovered from peritoneum after 11 days

Q: Which “intracellular CTLA-4 in T cells in contact with mDC(BiP)” value ([1]; FIG. 11B) does the source give for “BiP: 78 kD endoplasmic reticulum chaperone protein as disclosed in WO 00/21995; recombinant human protein” here?
A: significant upregulation of intracellular CTLA-4

Q: What about the “T cell surface expression for CD4CD25hiCD27hi” value ([1]; after 4d contact with mDC(BiP), n=5) of the same substance?
A: 2.5±0.2%

Q: And the “intracellular CTLA-4/CD152 in T cells” value ([1]; after contact with BiP treated DC, n=4)?
A: 31±12

Q: And the “cell surface CCR4 on T cells” value ([1]; after contact with mDC(BiP), n=4)?
A: 17.3±2.0%

Q: And the IL-8 gene expression [2]?
A: downregulated the IL-8 gene

Q: And the “cells with intracellular IFNγ” value [3, 5]?
A: 23.5±4%

Q: What about the “cells with intracellular IL-4” value [3, 5] of the same substance?
A: 16.2±0.5%

Q: What about the “cells with intracellular IL-5” value [3, 5] of the same substance?
A: 29±7%

Q: What about the “intracellular IL-4 in CD4+ cells” value ([3]; Example 10, BiP 100 μg/mouse, 11 days, ex vivo PMA and ionomycin 3 h, n=5) of the same substance?
A: 38.2±20%

Q: What about the “surface HLA-DR on CD4 T cells” value ([3]; Example 10, BiP 100 μg/mouse, 11 days, n=5) of the same substance?
A: 50±6.2%

Q: And the “IL-10 production by early DC(BiP) cultures” value ([4]; 3d GM-CSF and IL-4 with BiP 20 μg/ml, inhibitors 10 μM, anti-IL-10 added at day 0 (FIG. 13D))?
A: significantly more IL-10

Q: And the IL-10 production ([4]; iDC(BiP), 7d culture)?
A: 819.1 ± 688 pg/mL

Q: What about the IL-10 production ([4]; mDC(BiP), 7d culture with LPS final 2d) of the same substance?
A: 970.1 ± 684 pg/mL

Q: And the “IL-10 production by BiP-treated DC” value ([4]; versus untreated DC (FIG. 1))?
A: significantly more IL-10
